# Reference: patent US12023319B2, “Carboxylic acid aromatic amides” (priority 2016, dated 2024)
# Values joined by “and” are separate entries in the source; they are usually repeats but may differ in a detail not shown here. Equal values may be shown once.
# How the values were obtained:
# Male Sprague-Dawley rats = assay: Rat STZ model for diabetic neuropathy (cold plate, warm plate, paw pressure, SNCV); format: in vivo; conditions: for Latency in Cold plate / Latency in Warm plate / Paw pressure: STZ rats; for Latency in Cold plate / Latency in Warm plate: Day 10, individual animals; for Paw pressure: Day 21, individual animals
# Experimental: 7. Rat STZ Model for Diabetic Neuropathy (Diabetic Neuropathic Pain, Diabetes Induced Nerve Degeneration)
# The streptozotocin (STZ) diabetic rat is the most extensively studied animal model of diabetic neuropathy. The animals develop rapidly allodynia and hyperalgesia.
# Male Sprague-Dawley rats (˜200 g) were used. They were rendered diabetic by intravenous injection of streptozotocin (55 mg/kg; day 0). Four days (day 4) later, diabetes was confirmed in STZ-injected rats by obtaining a blood sample from the tail vein and by measuring the glucose concentration using a glucose monitor. Only STZ-treated rats with plasma-glucose>260 mg/dl were deemed “diabetic”. The body weight of rats was recorded on daily basis from day 4 to 40.
# 72 animals were randomly assigned to different groups (12 rats per group).
# Compound example 3 was prepared in 10% DMSO in PBS (v/v). […] The treatment was performed on daily basis (twice a day: morning and afternoon) from day 4 until day 40. On the day where behavioral measures are performed, compound or vehicle was given 60 min prior the assessment. On the day where electrophysiological measure was performed, treatment was performed after the assessment.
# For positive control regarding analgesia, morphine was dissolved in 0.9% NaCl, and administrated subcutaneously (s.c.) at the dose of 3 mg/kg 45 min prior the tests.
# Experimental Plan: • Day 0: induction of diabetes by injection of STZ for all groups except the control group injected with the STZ vehicle • Day 4: glycemia monitoring for all groups and start of the treatment for all groups, except the morphine group. On day 4 rats received only the evening treatment. • Day 10: cold and warm allodynia test for all groups. Treatment is given 60 min prior to the assessment. On that day, the time between the morning and the evening treatment was reduced. • Day 21: Mechanical hyperalgesia test for all groups. Compound or vehicle was given 60 min prior to the assessment. On that day, the time between the morning and the evening treatment was reduced. • Day 22: Termination of rats in the morphine group. • Day 25-26: measurement of sensory nerve conduction velocity (SNCV). On that day, rats only received the evening treatment. • Day 39-40: measurement of sensory nerve conduction velocity (SNCV). On that day, rats only received the evening treatment. • Day 41: skin biopsy from all rats (histology processing and immunostaining of skin biopsy from 7 rats per group take about 4 weeks).
# Cold Plate Test on Day 10
# The animals were placed into a glass cylinder on a cold platform (0-1° C.). The latency before the first reaction (brisk move of the paw, little leaps) was recorded with a maximal time of 30 s.
# Warm Plate Test on Day 10
# The animals were placed into a glass cylinder on a hot plate adjusted to 42° C. The latency of the first reaction was recorded (paw lifting or licking, leaps or a jump to escape the heat). Results can be seen in FIG. 8 and table 6.
# Paw pressure test is used to assess the hyperalgesia of animals in response to noxious mechanical stimulus. The nociceptive flexion reflex was quantified using the Randall-Selitto paw pressure device (Bioseb, France), which applies a linearly increasing mechanical force to the dorsum of the rat's hind paw. The mechanical nociceptive threshold is defined as the force in grams at which the rat withdraws its paw. The cut off pressure was set to 250 g.
# Electrophysiological Measurements (SNCV)
# Electrophysiological recordings of SNCV were performed using a Keypoint Electromyograph (EMG) (Medtronic, France). Rats were anaesthetized by intraperitoneal injection of 60 mg/kg ketamine chlorhydrate and 4 mg/kg xylazine. SNCV was recorded in the tail. Electrodes were placed as follows: The recording needle electrode was inserted near the base of the tail and stimulating needle electrode is placed about 50 mm away from the recording electrode towards the extremity of the tail. […]
# [1] = system: female Sprague Daley rats; assay: Cyclophosphamide-induced overactive bladder and cystitis (rats); format: in vivo, rat
# Source text: 12. Cyclophosphamide-Induced Overactive Bladder and Cystitis (Rats)
# The aim of this study was to test the efficacy of Compound Examples on overactive bladder as well as on interstitial cystitis and bladder pain syndrome in cyclophosphamide-treated rats.
# The experimental setup is adapted to a previous described protocol (Lecci A et al, Br J Pharmacol 130: 331-38, 2000).
# Strong presence and target induction of BDKRB1 in comparison to BDKRB2 has been verified by gene expression analysis in bladders removed from rats after cyclophosphamide (100 mg/kg and 150 mg/kg i.p.) induction in contrast to bladders of naïve, untreated rats. Immunohistochemistry confirmed the presence of BDKRB1 in bladders of rats after model induction, too.
# Briefly, female Sprague Daley rats (˜200 g) were housed under normal conditions for laboratory rats in a 12:12-h light:dark cycle. Rats have been weighed, the tested Compound Examples were dissolved in relevant vehicle (e.g. DMSO/Water) (5/95) (v/v) and have been administrated by oral gavage in different concentrations one hour before application of cyclophosphamide (150 mg/kg) by i.p. injection. Additional 1.5 hours after cyclophosphamide administration each rat was transferred to a metabolic cage and voiding frequency has been recorded for the next 15 hours. Total amount of urine (ml) was collected via a plastic tube attached to the metabolic cages. The urine collecting tube was connected to a weight-sensitive sensor and a pressure transducer connected via an amplifier (ADIstruments) to the data acquisition software program (LabChart, ADInstruments) and a computer. […] At the end of the experiment rats have been weighed and killed under isoflurane anaesthesia and bladders have been removed and weighed. The bladders' wet weight was normalized to 100 g of body weight of each rat and analysis has been performed using GraphPad Prism 7 program.
structure (smiles),measurement,setting,value
"O=C(O)c1cc(NC(=O)C2(c3ccc(C(F)(F)F)cc3F)CC2)ccc1-c1cnn(C2CCC2)c1 [Example 3, 2-(1-Cyclobutyl-1H-pyrazol-4-yl)-5-[({1-[2-fluoro-4-(trifluoromethyl)phenyl]cyclopropyl}carbonyl)amino]benzoic acid]",effects in all endpoints (warm/cold/mechanical) of neuropathic pain,"Male Sprague-Dawley rats; STZ diabetic rats, p.o. twice a day from day 4, tests on day 10 and day 21",significant effects
same,Latency in Cold plate,"Male Sprague-Dawley rats; 3 mg/kg, 3 mg/kg",14.39 s and 14.46 s and 22.78 s and 15.84 s and 16.87 s and 16.18 s and 21.38 s and 20.52 s and 17.93 s and 15.23 s and 26.66 s and 23.47 s
same,Latency in Warm plate,"Male Sprague-Dawley rats; 3 mg/kg, 3 mg/kg",19.71 s and 21.41 s and 22.31 s and 20.16 s and 14.49 s and 17.12 s and 22.29 s and 17.89 s (2×) and 23.35 s and 24.72 s and 21.04 s
same,Paw pressure,"Male Sprague-Dawley rats; 3 mg/kg, 3 mg/kg",125 g (3×) and 150 g (2×) and 105 g (4×) and 115 g and 140 g and 100 g
same,Latency in Cold plate,"Male Sprague-Dawley rats; 15 mg/kg, 15 mg/kg",22.94 s and 18.19 s and 23.62 s and 18.66 s and 20.23 s and 19.51 s and 23.02 s and 17.08 s and 24.66 s and 24.25 s and 20.00 s
same,Latency in Warm plate,"Male Sprague-Dawley rats; 15 mg/kg, 15 mg/kg",21.21 s and 17.56 s and 30.00 s and 23.09 s and 23.47 s and 19.44 s and 28.47 s and 15.88 s and 24.82 s and 20.31 s and 27.35 s
same,Paw pressure,"Male Sprague-Dawley rats; 15 mg/kg, 15 mg/kg",100 g and 125 g (2×) and 135 g (2×) and 120 g and 110 g (3×) and 85 g and 105 g
same,Latency in Cold plate,"Male Sprague-Dawley rats; 60 mg/kg, 60 mg/kg",20.21 s and 15.60 s and 17.29 s and 19.84 s and 14.52 s and 13.66 s and 22.28 s and 24.12 s and 21.12 s and 17.48 s and 22.45 s and 16.59 s
same,Latency in Warm plate,"Male Sprague-Dawley rats; 60 mg/kg, 60 mg/kg",17.88 s and 24.69 s and 21.32 s and 18.69 s and 21.23 s and 28.84 s and 18.84 s and 30.00 s and 23.02 s and 20.56 s and 26.94 s and 20.31 s
same,Paw pressure,"Male Sprague-Dawley rats; 60 mg/kg, 60 mg/kg",105 g and 165 g and 95 g and 115 g (3×) and 140 g and 120 g and 110 g (3×) and 190 g
same,bladder weight normalized to 100 g of body weight,"[1]; 60 mg/kg, compared to vehicle treatment, FIG. 11",significantly reduced
same,number of micturitions/hour,"[1]; preventive single gavage 15 mg & 60 mg/kg, cyclophosphamide 150 mg/kg i.p., FIG. 9",efficacy on reducing
same,AUC during the plateau phase of the micturition (4-10 hours after transfer to metabolic cages),"[1]; preventive single gavage, both tested dosages 15 mg & 60 mg/kg, FIG. 10",significantly reduced
